This is an account of results in patent publication US20240270699A1, “COMPOUNDS HAVING N-ARYLPYRIMIDIN-2-AMINE DERIVATIVES AS THERAPEUTIC AGENTS” (Lomond Therapeutics, Inc., priority 2021, published 2024).

The target in the experiment is T1, recombinant HPK1 protein (Homo sapiens, UniProt Q92918).
T1 construct: purchased Promega V6398
T1 sequence (Q92918 1-346 limits assumed): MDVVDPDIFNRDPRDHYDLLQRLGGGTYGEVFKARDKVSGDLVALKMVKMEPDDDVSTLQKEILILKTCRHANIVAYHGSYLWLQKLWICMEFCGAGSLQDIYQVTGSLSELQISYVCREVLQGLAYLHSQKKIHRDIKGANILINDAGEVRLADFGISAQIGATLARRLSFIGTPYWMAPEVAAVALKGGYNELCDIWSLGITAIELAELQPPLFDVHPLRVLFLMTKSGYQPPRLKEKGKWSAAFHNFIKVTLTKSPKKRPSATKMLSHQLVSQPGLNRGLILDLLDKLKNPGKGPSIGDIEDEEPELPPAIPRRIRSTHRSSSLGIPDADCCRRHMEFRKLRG
Put plainly: Primary assay of HPK1 enzymatic activity inhibition (ADP-Glo luminescence). The format is biochemical. As to conditions: recombinant HPK1, MBP substrate, 1 hour at room temperature. A general note: ADP-Glo first removes unused ATP, then detects ADP through luciferase.

With `CS(=O)(=O)c1ccc(Nc2ncc(C#N)c(N[C@H](CO)c3ccccc3)n2)cc1F` [Compound 2, 2-{[3-fluoro-4-(methylsulfonyl)phenyl]amino}-4-{[(1S)-2-hydroxy-1-phenylethyl]amino}pyrimidine-5-carbonitrile], the half-maximal inhibitory concentration (IC50) was at least 0.5 µM.
For `CS(=O)(=O)c1ccc(Nc2ncc(C(=O)O)c(N[C@H](CO)c3ccccc3)n2)cc1F` [Compound 42, 2-{[3-fluoro-4-(methylsulfonyl)phenyl]amino}-4-{[(1S)-2-hydroxy-1-phenylethyl]amino}pyrimidine-5-carboxylic Acid] the value was at least 0.5 µM.
`CCOC(=O)c1cnc(Nc2ccc(C(=O)NC)c(C)c2)nc1N[C@H](CO)c1ccccc1` [Compound 48, Ethyl 4-[[(1S)-2-hydroxy-1-phenyl-ethyl]amino]-2-[3-methyl-4-(methylcarbamoyl)anilino]pyrimidine-5-carboxylate]: the IC50 is at least 0.5 µM.
Regarding `CCOC(=O)c1cnc(Nc2ccc(C(=O)O)c(OC)c2)nc1N[C@H](CO)c1ccccc1` [Compound 62, 4-[[5-ethoxycarbonyl-4-[[(1S)-2-hydroxy-1-phenyl-ethyl]amino]pyrimidin-2-yl]amino]-2-methoxy-benzoic acid], the IC50 lay within 0.2 to 0.5 µM.
For `CN1CCc2cc(Nc3ncc(-c4nnco4)c(N[C@H](CO)c4ccccc4)n3)ccc2C1=O` [Compound 89, 6-[[4-[[(1S)-2-hydroxy-1-phenyl-ethyl]amino]-5-(1,3,4-oxadiazol-2-yl)pyrimidin-2-yl]amino]-2-methyl-3,4-dihydroisoquinolin-1-one] the value was under 0.05 µM; for `CCOC(=O)c1cnc(Nc2ccc(S(C)(=O)=O)c(F)c2)nc1N[C@H](C)c1ccccc1` [Compound 97, ethyl 2-(3-fluoro-4-methylsulfonyl-anilino)-4-[[(1R)-1-phenylethyl]amino]pyrimidine-5-carboxylate], at least 0.5 µM; for `CNC(=O)c1cnc(Nc2ccc(C(F)(F)F)c(Cl)c2)nc1N[C@H](CO)c1ccccc1` [Compound 132, 2-{[3-chloro-4-(trifluoromethyl)phenyl]amino}-4-{[(1S)-2-hydroxy-1-phenylethyl]amino}-N-methylpyrimidine-5-carboxamide], at least 0.5 µM.
For the molecule `Cc1noc(-c2cnc(Nc3ccc4c(c3)CCN(C)C4=O)nc2N[C@H](CO)c2ccccc2)n1` [Compound 183, 6-[[4-[[(1S)-2-hydroxy-1-phenyl-ethyl]amino]-5-(3-methyl-1,2,4-oxadiazol-5-yl)pyrimidin-2-yl]amino]-2-methyl-3,4-dihydroisoquinolin-1-one], the IC50 was under 0.05 µM.
The value for `CCOC(=O)c1cnc(Nc2ccc(C(=O)N(C)C)c(OC)c2)nc1N[C@H](CO)c1ccccc1` [Compound 247, Ethyl 2-[4-(dimethylcarbamoyl)-3-methoxy-anilino]-4-[[(1S)-2-hydroxy-1-phenyl-ethyl]amino]pyrimidine-5-carboxylate] was 0.2 to 0.5 µM; that for `CCOC(=O)c1cnc(Nc2ccc(C(F)(F)F)c(Cl)c2)nc1N[C@H](CO)c1ccccc1` [Compound 248, Ethyl 2-{[3-chloro-4-(trifluoromethyl)phenyl]amino}-4-{[(1S)-2-hydroxy-1-phenylethyl]amino}pyrimidine-5-carboxylate] was at least 0.5 µM.
Consider `CCOC(=O)c1cnc(Nc2ccc(S(C)(=O)=O)c(F)c2)nc1N[C@H]1c2ccccc2C[C@H]1O` [Compound 298, ethyl 2-(3-fluoro-4-methylsulfonyl-anilino)-4-[[(1S,2R)-2-hydroxyindan-1-yl]amino]pyrimidine-5-carboxylate], for which the IC50 is at least 0.5 µM.
For the molecule `CCOC(=O)c1cnc(Nc2ccc(S(C)(=O)=O)cc2OC)nc1N[C@H](CO)c1ccccc1` [Compound 299, Ethyl 4-{[(1S)-2-hydroxy-1-phenylethyl]amino}-2-{[2-methoxy-4-(methylsulfonyl)phenyl]amino}pyrimidine-5-carboxylate], the IC50 was at least 0.5 µM.

One may read the IC50 as the concentration at which inhibition is half-maximal.
